“And” between values parts separate entries of the source, which are not always exact repeats. Equal values may be shown once.
Tests used:
[1] = system: adolescents with SVHD who had undergone Fontan palliation; test: FUEL trial, resting data; format: in vivo, human
Method: (§1) The FUEL Trial was conducted at 30 centers around the world. […] (Funded by Mezzion Pharma Co. Ltd., and conducted by the National Heart, Lung, and Blood Institute-funded Pediatric Heart Network; ClinicalTrials.gov number NCT02741115).
(§2) The primary outcome was the change in oxygen consumption at peak exercise (max or peak VO2) from baseline to the 26-week visit. Secondary exercise outcomes included change in additional measures at maximal exertion, as well as change in measures of submaximal exercise at the ventilatory anaerobic threshold (VAT). The primary outcome for clinical secondary aims included change in myocardial performance index (MPI), an echocardiographically-derived measure of systolic and diastolic ventricular function, change in log-transformed reactive hyperemia index (lnRHI), a PAT-derived measure of peripheral vascular function, and change in log-transformed serum BNP level. Safety was monitored through adverse event reports, which were collected according to a pre-specified protocol of study coordinator outreach, and through ad hoc patient and family communication with members of the study team at each site.
Individuals between the ages of 12 and 18 years (inclusive) who had undergone the Fontan procedure, who were not receiving treatment with a PDE5 inhibitor, who were ≥40 kg, and who met the minimum height requirement for cycle ergometry (≥132 cm) were eligible for enrollment.
Randomization assignments were generated by a web-based algorithm after confirmation of trial eligibility and consent.
(§3) Baseline clinical testing completed before drug initiation included a blood draw to measure brain-type natriuretic peptide (BNP) level, a cardiopulmonary exercise test (CPET) using a standardized cycle ergometer ramp protocol, a standardized echocardiogram, and an assessment of peripheral vascular function using peripheral arterial tonometry (PAT) measured by finger cuff (EndoPAT; Itamar Medical, Israel). Participants who achieved maximal effort, defined as respiratory exchange ratio (RER)≥1.10 at peak exercise during CPET, were eligible for randomization and study drug initiation. […] End-of-study clinical testing included repeat measurement of serum BNP, CPET, echocardiogram, and PAT.
A sample size of 200 participants per arm was chosen to allow for 90% power to detect a mean treatment difference in change from baseline to 26-week testing in max VO2 of 10% with a type 1 error of 0.05. The following assumption were made: a baseline standard deviation of 7.235 ml/kg/min, a correlation between max VO2 measurements of 0.33, a drop-out and incomplete testing rate of 10%, and failure to reach maximal effort at the 26-week exercise testing in 15% of participants. These assumptions were based on historical data and reflect a conservative approach to assessing within-participant correlations and failure to reach maximal effort. The primary analysis used the intention-to-treat population to evaluate the difference in the change in the primary outcome between treatment arms. This difference was assessed with an analysis of covariance (ANCOVA) with fixed factors for ventricular morphology (single left versus single right or mixed) and treatment group, with a continuous covariate of baseline max VO2. For those without data at the 26-week visit, this value was imputed as equal to the baseline value (no change). […] Secondary outcomes of continuous data points were analyzed in the manner described for the primary outcome. […]

[2] = system: adolescents with Fontan physiology; details: cited from earlier work
[3] = system: adolescents with SVHD who had undergone Fontan palliation; test: FUEL trial, safety and tolerability (adverse event reports); format: in vivo, human
Text: as §2
The primary outcome for clinical secondary aims included the between group differences in change in myocardial performance index (MPI), an echocardiographically-derived measure of systolic and diastolic ventricular function, change in log-transformed reactive hyperemia index (lnRHI), a PAT-derived measure of peripheral vascular function, and change in log-transformed serum BNP level. Measurements for each of these secondary outcomes were performed at core labs. Safety was monitored through adverse event reports, which were collected according to a pre-specified protocol of study coordinator outreach, and through adhoc patient and family communication with members of the study team at each site.
A sample size of 200 participants per arm was chosen to allow for 90% power to detect a mean treatment difference in change from baseline to 26-week testing in peak VO2 of 10% with a type 1 error of 0.05. We assumed a baseline standard deviation of 7.235 ml/kg/min, a correlation between peak VO2 measurements of 0.33, a drop-out and incomplete testing rate of 10%, and failure to reach maximal effort at the 26-week exercise testing in 15% of participants. These assumptions were based on historical data and reflect a conservative approach to assessing within-participant correlations and failure to reach maximal effort and the analysis was performed using a two-sample, independent means t-test. The primary analysis used the intention-to-treat population to evaluate the difference in the change in the primary outcome between treatment arms. This difference was assessed with an analysis of covariance (ANCOVA) with fixed factors for ventricular morphology (single left versus single right or mixed) and treatment group, with a continuous covariate of baseline peak VO2. For those without data at the 26-week visit, this value was imputed as equal to the baseline value (no change). The alpha level was set at 0.05 with two-sided testing. All statistical analyses were performed using SAS statistical software 9.4 (SAS Institute, Inc., Cary, North Carolina). Secondary analyses included participants who successfully completed the protocol with measurable values at each of the secondary endpoints. Secondary outcomes of continuous data points were analyzed in the manner described for the primary outcome. In order to assess the generalizability of findings at the ventilatory anaerobic threshold, demographic and clinical characteristics were compared between participants without paired VO2 at VAT data and those comprising the remainder of the cohort using the Student's t-test and Fisher's exact test. Fisher's exact test was used to compare adverse events between the udenafil and placebo cohorts.

[4] = system: adolescents with SVHD who had undergone Fontan palliation; test: FUEL trial, cardiopulmonary exercise test (cycle ergometer ramp protocol), peak exercise and ventilatory anaerobic threshold; format: in vivo, human
Method: as §1, §2, §3
A sample size of 200 participants per arm was chosen to allow for 90% power to detect a mean treatment difference in change from baseline to 26-week testing in max VO2 of 10% with a type 1 error of 0.05. The following assumption were made: a baseline standard deviation of 7.235 ml/kg/min, a correlation between max VO2 measurements of 0.33, a drop-out and incomplete testing rate of 10%, and failure to reach maximal effort at the 26-week exercise testing in 15% of participants. These assumptions were based on historical data and reflect a conservative approach to assessing within-participant correlations and failure to reach maximal effort. The primary analysis used the intention-to-treat population to evaluate the difference in the change in the primary outcome between treatment arms. This difference was assessed with an analysis of covariance (ANCOVA) with fixed factors for ventricular morphology (single left versus single right or mixed) and treatment group, with a continuous covariate of baseline max VO2. For those without data at the 26-week visit, this value was imputed as equal to the baseline value (no change). Secondary analyses included participants who successfully completed the protocol with measurable values at each of the secondary endpoints. Secondary outcomes of continuous data points were analyzed in the manner described for the primary outcome. In order to assess the generalizability of findings at the ventilatory anaerobic threshold, demographic and clinical characteristics were compared between participants without paired VO2 at VAT data and those comprising the remainder of the cohort.
The FUEL Trial was a Phase III clinical trial conducted at 30 centers. […] The primary outcome was the between group difference in change in oxygen consumption at peak exercise. Secondary outcomes included between group differences in changes in sub-maximal exercise at the ventilatory anaerobic threshold (VAT), the myocardial performance index (MPI), the natural log of the reactive hyperemia index (lnRHI), and serum brain-type natriuretic peptide (BNP). […]

[5] = system: adolescents with SVHD who had undergone Fontan palliation; test: FUEL trial, echocardiographic myocardial performance index (blood pool Doppler); format: in vivo, human; details: for MPI difference, Week 26 − Baseline, mean (SD): paired data, decrease shows improvement, p 0.028 vs placebo
Text: Generally speaking, MPI (also referred to as the Doppler-derived index or Tei Index) is a measure of ventricular systolic and diastolic function as determined by a focused echocardiogram. It combines systolic and diastolic time intervals to assess heart function. More specifically, MPI can be used to assess ventricular performance represented by a numeric value using cardiac time intervals. This numeric value equals the sum of isovolumetric contraction time (ICT) and isovolumetric relaxation time (IRT) divided by ejection time (ET) and can be determined for either the left or right ventricle. Pellett, A. A., et al.: The Tei Index: Methodology and Disease. State Values. Echocardiography. A Jrnl. of CV Ultrasound & Allied Tech. 21(7):669-672 (2004); and Ulugay, A., Tatli E.: Myocardial performance index. Anadolu Kardiyol Derg 8(2):143-8 (April, 2008), both of which are incorporated herein by reference in their entireties. In the FUEL Trial, the MPI measured the performance of the single functioning ventricle. Thus, the MPI results from the FUEL Trial were determined by velocities obtained from blood pool Doppler assessment of the inflow and outflow tract of the functioning single ventricle. In other words, the FUEL Trial MPI was determined by measuring the cardiac time intervals using pulsed-wave Doppler velocity spectra of the ventricular inflow and outflow of the single functioning ventricle.
Echocardiograms were performed by sonographers with specific training for this protocol. The primary outcome of interest was MPI using Doppler-based measures of inflow and outflow duration. The duration of inflow into the dominant ventricle and outflow across the dominant semilunar valve were measured and used to calculate MPI using the standard formula. Tei C, Ling L H, Hodge D O, et al.: New index of combined systolic and diastolic myocardial performance: a simple and reproducible measure of cardiac—a study in normals and dilated cardiomyopathy. J Cardiol, 26(6):357-66 (1995); and Pellet A A et al.: The Tei Index Methodology and Disease State Values. Echocardiography: A Jrnl Of CV Ultrasound & Allied Tech, 21(7):669-672 (2004) Additional tissue Doppler images were obtained and used to calculate the tissue Doppler based MPI as previously described. Harada K, Tamura M, Toyono M et al.: Comparison of the right ventricular Tei index by tissue Doppler imaging to that obtained by pulsed Doppler in children without heart disease. Am J Cardiol, 90(5):566-9 (2002). Whenever possible, three measurements were made and the mean duration was used for the calculation.
as §2
Baseline clinical testing completed before drug initiation included a blood draw to measure brain-type natriuretic peptide (BNP) level, a cardiopulmonary exercise test (CPET) using a standardized cycle ergometer ramp protocol, a standardized echocardiogram, and an assessment of peripheral vascular function using peripheral arterial tonometry (PAT) measured by finger cuff (EndoPAT; Itamar Medical, Israel). […]

[6] = 87.5 mg twice daily, baseline to week 26
[7] = baseline before drug, mean ± SD (n)

CCCOc1ccc(S(=O)(=O)NCCC2CCCN2C)cc1-c1nc2c(CCC)nn(C)c2c(=O)[nH]1 (centres unmarked) [Udenafil, udenafil]
Resting oxygen saturation, change ([1]; 87.5 mg twice daily, baseline to week 26, mean ± SD (n), p 0.002 vs placebo): 0.5% | Resting diastolic blood pressure, change ([1]; 87.5 mg twice daily, baseline to week 26, mean ± SD (n), p 0.003 vs placebo): −2.9 mmHg | Resting diastolic blood pressure, change vs placebo (in words) ([1]; baseline to 26-week testing): small but statistically significant decrease | Resting heart rate, respiratory rate, or systolic blood pressure, change vs placebo (in words) ([1]; baseline to 26-week testing): no difference | Resting oxygen saturation, change vs placebo (in words) ([1]; baseline to 26-week testing): small but statistically significant increase | Average serum concentration ([2]; 87.5 mg twice daily compared with other tested regimens): highest average serum concentration | Dose-limiting adverse events ([2]; 87.5 mg twice daily): not associated with dose-limiting adverse events | Tolerability ([2]; all tested dosing regimens): tolerability at all tested dosing regimens | Participants who experienced a serious adverse event ([3]; human, in vivo, 26 weeks): 14 | Serious adverse events with possible, probable, or definite relationship to study drug ([3]; human, in vivo, 26 weeks): 3 events | Adverse events more common than in the placebo group ([3]; in vivo): Headache, facial flushing, abdominal pain, epistaxis, and erection (male participants) were more common | Priapism ([3]; in vivo): no reported episodes of priapism | Serious adverse events related to study drug, kind ([3]; in vivo): unilateral retinal artery and vein thrombosis, transient lower extremity diplegia, and transient dyspnea | Non-serious adverse event: increased erection, participants ([3]; male, human, in vivo, 26 weeks): 13 (11.7) n (%) | Deaths ([3]; study cohort, 26 weeks): no deaths | Peak VO2 (VO2 max), increase in percent [4, 6]: 2.8% | VE/VCO2 at VAT, decrease in percent [4, 6]: 2.1% | Work rate at VAT, improvement in percent [4, 6]: 5.5% and 5.2% | VO2 at VAT, improvement in percent ([4]; 87.5 mg twice daily, baseline to week 26, paired data): 3.2% | Anaerobic threshold oxygen consumption (VO2 at VAT), change ([4]; 87.5 mg twice daily, baseline to week 26, paired data, mean ± SD (n), p 0.023 vs placebo (p=0.012)): 30 mL/min and 33 ± 185 mL/min and 29.7 mL/min | Peak exercise heart rate, baseline [4, 7]: 165 ± 20 (200) bpm | Peak exercise minute ventilation, baseline [4, 7]: 71 ± 21 (199) L/min | Peak exercise respiratory rate, baseline [4, 7]: 51 ± 11 (199) breaths/min | Peak exercise work rate, baseline [4, 7]: 120 ± 32 (198) W | MPI, max of the difference Week 26 − Baseline ([5]; 87.5 mg twice daily): 0.2 | MPI, median (interquartile range) of the difference Week 26 − Baseline ([5]; 87.5 mg twice daily): −0.01 (−0.11, 0.05) | MPI, min of the difference Week 26 − Baseline ([5]; 87.5 mg twice daily): −.3 | MPI difference, Week 26 − Baseline, mean (SD) ([5]; 87.5 mg twice daily): 122: −0.02 (0.113) | MPI difference, Week 26 − Baseline, mean (SD) ([5]; 87.5 mg twice daily, listed as udenafil): −0.02 | MPI, LS mean dif A − B (SE), baseline ([5]; udenafil minus placebo, baseline, p 0.818): −0.0 (0.018) | MPI, LS mean dif A − B (SE), Week 26 ([5]; udenafil minus placebo, week 26, p 0.024): −0.04 (0.018) | MPI, LS mean dif A − B (SE), difference Week 26 − Baseline ([5]; udenafil minus placebo, p 0.028): −0.03 (0.014)
